Experimental data reported in ChEMBL document CHEMBL1201862, “PubChem BioAssay data set” (2004).
Active and inactive are the calls of the source.

Experiments:
Streptokinase A = molecular target: T1, Streptokinase A (Streptococcus pyogenes serotype M1, UniProt P10520); experiment: viability-normalized secreted streptokinase activity reduction – plasminogen activation absorbance, OD405, dose response (AID 1914); type: functional, Streptococcus pyogenes M1 GAS;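 note: secreted streptokinase activity via plasminogen activation per viability signal from cell pellet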
T1 sequence (P10520 whole entry): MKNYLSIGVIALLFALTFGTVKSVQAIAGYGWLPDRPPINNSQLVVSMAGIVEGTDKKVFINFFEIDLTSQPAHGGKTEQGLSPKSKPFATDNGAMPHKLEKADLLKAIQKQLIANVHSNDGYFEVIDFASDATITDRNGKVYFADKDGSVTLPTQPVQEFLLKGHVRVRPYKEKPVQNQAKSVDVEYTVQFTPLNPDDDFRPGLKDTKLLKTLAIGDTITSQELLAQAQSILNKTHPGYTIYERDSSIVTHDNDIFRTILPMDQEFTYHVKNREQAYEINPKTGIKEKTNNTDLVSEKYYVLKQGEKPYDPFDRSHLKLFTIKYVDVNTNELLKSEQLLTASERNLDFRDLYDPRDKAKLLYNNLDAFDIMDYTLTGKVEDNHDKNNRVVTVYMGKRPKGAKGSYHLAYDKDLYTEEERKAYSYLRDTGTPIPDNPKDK

[1] = test system: Streptococcus sp. 'group A'; experiment: Streptococcus pyogenes SK(-)GAS viability under kanamycin – luminescence, BacTiterGlo, confirmation, counter-screen for streptokinase expression inhibitor project, dose response (AID 1900); type: functional, organism-based
Streptococcus = experiment: GAS UMAA2166 growth inhibition – luminescence, BacTiterGlo, counter-screen for streptokinase expression inhibitor project, dose response (AID 1915); type: functional, organism-based;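 note: potency for reduction of bacterial viability or growth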
[2] = HGIII-sPLA2 enzyme inhibition potency – biochemical, QFRET, IC50, dose response (AID 743457);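 note: green fluorescence rise as the enzyme cleaves BODIPY PC-A2 in liposomes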
[3] = molecular target: Disintegrin and metalloproteinase domain-containing protein 17 (Homo sapiens, UniProt P78536); experiment: exosite inhibitors of ADAM17, dose response, biochemical (AID 743260)
Sequence of Disintegrin and metalloproteinase domain-containing protein 17 (P78536 whole entry, the tested form may be a part): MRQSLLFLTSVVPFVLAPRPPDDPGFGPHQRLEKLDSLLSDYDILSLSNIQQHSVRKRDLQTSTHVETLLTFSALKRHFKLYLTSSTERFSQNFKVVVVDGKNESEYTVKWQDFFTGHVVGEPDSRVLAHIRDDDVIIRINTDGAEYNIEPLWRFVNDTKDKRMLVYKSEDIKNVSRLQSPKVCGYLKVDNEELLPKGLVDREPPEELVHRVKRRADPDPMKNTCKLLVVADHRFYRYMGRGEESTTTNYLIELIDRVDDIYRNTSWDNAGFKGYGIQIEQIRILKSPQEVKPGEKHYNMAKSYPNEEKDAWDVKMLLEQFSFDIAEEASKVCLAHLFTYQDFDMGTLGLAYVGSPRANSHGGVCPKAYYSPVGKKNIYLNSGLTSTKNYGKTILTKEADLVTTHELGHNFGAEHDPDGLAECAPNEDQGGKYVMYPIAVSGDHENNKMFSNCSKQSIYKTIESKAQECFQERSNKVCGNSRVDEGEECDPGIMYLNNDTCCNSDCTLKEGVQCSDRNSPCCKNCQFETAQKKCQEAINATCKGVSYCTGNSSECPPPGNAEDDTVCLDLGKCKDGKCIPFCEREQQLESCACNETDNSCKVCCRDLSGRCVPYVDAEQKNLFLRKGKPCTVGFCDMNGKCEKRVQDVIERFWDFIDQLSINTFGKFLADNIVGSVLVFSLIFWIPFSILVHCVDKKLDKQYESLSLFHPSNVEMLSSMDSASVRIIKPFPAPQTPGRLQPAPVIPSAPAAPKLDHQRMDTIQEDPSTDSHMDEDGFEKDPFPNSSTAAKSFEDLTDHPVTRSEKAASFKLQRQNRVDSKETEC

[4] = inhibition of ADAM10 peptide cleavage – biochemical, FRET peptide substrate, recombinant human ADAM10, selectivity assay for ADAM17 exosite inhibitor project, dose response (AID 743259);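 note: ADAM10 enzyme cleaving a FRET peptide substrate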
[5] = molecular target: T2, Oxysterols receptor LXR-beta (Homo sapiens, UniProt P55055); type: functional, cell-based;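 note: Cell-based luminescence dose-response assay of agonist activity at LXR, run as a confirmatory counterscreen to a daf-12 agonist screen; HEK293 cells with Gal4-LXR fusion and GAL4-driven luciferase reporter; agonist potency from rising luciferase signal of a Gal4-LXR reporter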
T2 sequence (P55055 whole entry): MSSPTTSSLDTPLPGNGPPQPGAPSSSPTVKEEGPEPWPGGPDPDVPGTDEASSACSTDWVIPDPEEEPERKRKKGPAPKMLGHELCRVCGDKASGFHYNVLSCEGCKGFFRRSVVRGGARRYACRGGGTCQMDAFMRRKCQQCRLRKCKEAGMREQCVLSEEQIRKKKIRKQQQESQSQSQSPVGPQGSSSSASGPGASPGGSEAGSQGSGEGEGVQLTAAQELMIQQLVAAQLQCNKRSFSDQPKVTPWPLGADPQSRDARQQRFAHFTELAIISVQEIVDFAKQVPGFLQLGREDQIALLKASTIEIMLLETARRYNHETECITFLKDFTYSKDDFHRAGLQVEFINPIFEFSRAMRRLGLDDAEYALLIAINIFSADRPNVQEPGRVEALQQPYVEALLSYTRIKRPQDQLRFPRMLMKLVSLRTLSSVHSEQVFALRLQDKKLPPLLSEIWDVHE

Caspase-6 = molecular target: T3, Caspase-6 (Homo sapiens, UniProt P55212); experiment: inhibition of CASP6 peptide cleavage – biochemical, VEID-R110 fluorescence, cherry-pick, dose response (AID 720632)
T3 sequence (P55212 whole entry): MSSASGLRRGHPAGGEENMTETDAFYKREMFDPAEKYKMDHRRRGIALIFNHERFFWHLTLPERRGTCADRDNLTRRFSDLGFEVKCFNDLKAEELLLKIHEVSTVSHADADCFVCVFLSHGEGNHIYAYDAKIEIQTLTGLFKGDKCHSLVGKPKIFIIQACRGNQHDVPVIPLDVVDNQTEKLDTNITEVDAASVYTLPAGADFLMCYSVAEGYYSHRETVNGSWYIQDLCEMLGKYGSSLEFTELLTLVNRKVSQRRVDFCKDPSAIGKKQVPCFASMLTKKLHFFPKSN

[6] = blockers of bursicon-stimulated LGR2 cAMP reporter – cell-based, HEK293, CRE-luciferase reporter, cherry pick, set 2, dose response (AID 743343); type: functional;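 note: transfected cells were stimulated with diluted bursicon conditioned medium after compound addition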
[7] = blockade of melanocortin 4 receptor signaling – cell-based, plate reader, cherry pick, counter-screen for LGR2 antagonist project, dose response (AID 743444); type: functional;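 note: transfected HEK 293 cells stimulated with alpha-MSH peptide; potency of inhibitors of the alpha-MSH evoked signal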
[8] = A549 cell cytotoxicity, dose response, cytotoxicity control, plate reader, cherry-pick, antagonist series (AID 743412); type: functional, cell-based

NNC(=O)/C(=N/Nc1ccccc1)S(=O)(=O)c1ccc(Cl)cc1
EC50 (Streptokinase A): > 150 µM (not active)
EC50 [1]: 6.91 µM (active)
EC50 (Streptococcus): > 150 µM (not active)
IC50 [2]: 47.3 µM (inactive)

CC(C)(C)[S+]([O-])N1Cc2cc(C(=O)NCC(F)(F)F)nc(-c3cccc(-c4cccc(F)c4)c3)c2[C@H]1CCO (some centres not stated)
IC50 [3]: > 69.5 µM (inactive)
IC50 [4]: > 7.72 µM (active)

Nc1c(Br)cc2oc(-c3ccccc3)nc2c1Br
EC50 [5]: > 67.5 µM (inactive)
EC50 (cells): > 67.5 µM (inactive)

Cc1nc2ccc(S(=O)(=O)NCC(=O)NCc3ccc4c(c3)OCO4)cc2s1
IC50 [3]: > 69.5 µM (inactive)
IC50 [4]: > 69.5 µM (inactive)

CCc1nnc(N/N=C/c2cc(C)c(C)cc2C)n1N
AC50 (Caspase-6): 39.8 µM (active)

O=C(CN1C(=O)c2ccccc2S1(=O)=O)Nc1cc(S(=O)(=O)N2CCCCC2)ccc1Cl
IC50 [3]: > 69.5 µM (inactive)
IC50 [4]: > 69.5 µM (inactive)

Cc1ccccc1-c1ccc([C@H]2[C@@H](CO)N3CCCCN(S(=O)(=O)c4ccc(F)cc4)C[C@@H]23)cc1
AC50 [6]: 9.92 µM (active)
AC50 [7]: 8.3 µM (active)
AC50 [8]: 19.8 µM (active)

COc1cc(-c2noc(C)c2/C=C/c2ccc(C(=O)O)cc2)cc(OC)c1OC
AC50 (Caspase-6): 23.2 µM (active)
